Experiments:
[1] = molecular target: TEAD1 (Homo sapiens (Human), UniProt P28347); test: TR-FRET lipid pocket probe competition assay (Lipid HTRF), TEAD1; type: binding; conditions: 4 hours pre-incubation; read-out: Lipid HTRF TEAD1 IC50;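 further: His-tagged TEAD1 with biotinylated probe, detected via Europium anti-His and XL665 streptavidin, probe displacement lowers TR-FRET signal, IC50 from four-parameter nonlinear fit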
Protocol: (§1) His-tagged TEAD proteins are pre-incubated with TEAD project compounds for 30 minutes or 4 hours at room temperature. Biotinylated lipid pocket probes are then added to the TEAD/Compound mixture and incubated for 60 minutes at room temperature. The lipid pocket probe competes with the test compound for the TEAD lipid pocket until equilibrium is reached. After 60 minutes, Europium labelled anti-His (Perkin Elmer #AD0110) and XL665 labelled streptavidin (CIS Bio 610SAXAC) are added to the TEAD/test compound/lipid pocket mixture and incubated for 30 minutes or 4 hours. […] If a TEAD lipid pocket binder such as binds and displaces the lipid pocket probe, the disruption of the TEAD:probe interaction results in a decrease in TR-FRET signal. The potency of compounds as TEAD lipid pocket binders is determined by IC50 value generated using a non-linear 4 parameter curve fit.

[2] = molecular target: TEAD3 (Homo sapiens (Human), UniProt Q99594); test: TR-FRET lipid pocket probe competition assay (Lipid HTRF), TEAD3; type: binding; conditions: 4 hours pre-incubation; read-out: Lipid HTRF TEAD3 IC50
Chain of TEAD3 (Q99594 whole entry, species assumed): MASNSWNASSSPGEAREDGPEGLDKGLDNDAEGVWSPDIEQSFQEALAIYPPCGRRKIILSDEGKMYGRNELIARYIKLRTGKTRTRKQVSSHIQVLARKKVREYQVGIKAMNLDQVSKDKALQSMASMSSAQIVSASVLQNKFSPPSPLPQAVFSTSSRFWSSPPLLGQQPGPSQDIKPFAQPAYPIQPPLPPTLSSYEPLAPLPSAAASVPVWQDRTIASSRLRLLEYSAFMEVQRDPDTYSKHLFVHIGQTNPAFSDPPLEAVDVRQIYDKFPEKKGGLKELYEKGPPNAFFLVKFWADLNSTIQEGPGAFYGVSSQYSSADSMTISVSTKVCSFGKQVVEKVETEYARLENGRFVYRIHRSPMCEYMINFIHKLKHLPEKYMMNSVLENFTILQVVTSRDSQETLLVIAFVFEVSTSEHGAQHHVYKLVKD

[3] = molecular target: TEAD4 (Homo sapiens (Human), UniProt Q15561); test: TR-FRET lipid pocket probe competition assay (Lipid HTRF), TEAD4; type: binding; conditions: 4 hours pre-incubation; read-out: Lipid HTRF TEAD4 IC50;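 further: His-tagged TEAD4 with biotinylated lipid-pocket probe, read by Europium anti-His and XL665 streptavidin, where probe displacement lowers the TR-FRET signal, IC50 from a four-parameter fit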
Chain of TEAD4 (Q15561 whole entry, species assumed): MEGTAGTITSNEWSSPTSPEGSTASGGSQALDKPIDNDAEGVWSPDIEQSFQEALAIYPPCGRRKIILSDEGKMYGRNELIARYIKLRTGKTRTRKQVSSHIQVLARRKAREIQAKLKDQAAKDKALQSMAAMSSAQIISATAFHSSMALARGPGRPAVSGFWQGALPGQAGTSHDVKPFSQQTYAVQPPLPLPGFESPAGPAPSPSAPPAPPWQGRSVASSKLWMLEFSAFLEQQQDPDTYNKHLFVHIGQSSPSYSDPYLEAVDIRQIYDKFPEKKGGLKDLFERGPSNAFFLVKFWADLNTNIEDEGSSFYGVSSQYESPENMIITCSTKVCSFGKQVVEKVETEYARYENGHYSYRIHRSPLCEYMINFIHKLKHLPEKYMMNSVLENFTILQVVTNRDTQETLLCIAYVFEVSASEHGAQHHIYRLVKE
Protocol: as §1

[4] = molecular target: TEAD2 (Homo sapiens (Human), UniProt Q15562);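 further: TR-FRET competition assay with His-tagged TEAD protein and a biotinylated lipid pocket probe, compound pre-incubated 30 min or 4 h at room temperature, displacement lowers signal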
Chain of TEAD2 (Q15562 whole entry, species assumed): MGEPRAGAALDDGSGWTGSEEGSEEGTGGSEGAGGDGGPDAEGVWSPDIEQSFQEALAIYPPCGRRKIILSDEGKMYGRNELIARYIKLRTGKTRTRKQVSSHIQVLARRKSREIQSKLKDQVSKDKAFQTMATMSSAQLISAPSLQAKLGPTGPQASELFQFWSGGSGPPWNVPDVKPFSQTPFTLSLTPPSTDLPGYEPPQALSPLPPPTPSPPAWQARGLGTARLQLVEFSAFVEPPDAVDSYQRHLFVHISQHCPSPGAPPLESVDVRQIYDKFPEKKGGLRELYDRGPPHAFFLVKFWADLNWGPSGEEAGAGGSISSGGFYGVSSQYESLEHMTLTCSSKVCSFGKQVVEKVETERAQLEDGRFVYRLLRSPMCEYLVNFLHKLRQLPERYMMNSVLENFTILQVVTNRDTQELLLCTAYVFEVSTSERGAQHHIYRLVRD
Protocol: His-tagged TEAD proteins are pre-incubated with TEAD project compounds for 30 minutes or 4 hours at room temperature. Biotinylated lipid pocket probes are then added to the TEAD/Compound mixture and incubated for 60 minutes at room temperature. The lipid pocket probe competes with the test compound for the TEAD lipid pocket until equilibrium is reached. After 60 minutes, Europium labelled anti-His (Perkin Elmer #AD0110) and XL665 labelled streptavidin (CIS Bio 610SAXAC) are added to the TEAD/test compound/lipid pocket mixture and incubated for 30 minutes or 4 hours. TR-FRET values are then measured using an EnVision multi-label plate reader (Perkin Elmer Cat #2104-0010A.) If the lipid pocket probe binds to TEAD as expected, a TR-FRET signal results from the proximity of anti-His Eu and XL665. If a TEAD lipid pocket binder such as binds and displaces the lipid pocket probe, the disruption of the TEAD:probe interaction results in a decrease in TR-FRET signal. The potency of compounds as TEAD lipid pocket binders is determined by IC50 value generated using a non-linear 4 parameter curve fit.

Chain of TEAD1 (P28347 whole entry, species assumed): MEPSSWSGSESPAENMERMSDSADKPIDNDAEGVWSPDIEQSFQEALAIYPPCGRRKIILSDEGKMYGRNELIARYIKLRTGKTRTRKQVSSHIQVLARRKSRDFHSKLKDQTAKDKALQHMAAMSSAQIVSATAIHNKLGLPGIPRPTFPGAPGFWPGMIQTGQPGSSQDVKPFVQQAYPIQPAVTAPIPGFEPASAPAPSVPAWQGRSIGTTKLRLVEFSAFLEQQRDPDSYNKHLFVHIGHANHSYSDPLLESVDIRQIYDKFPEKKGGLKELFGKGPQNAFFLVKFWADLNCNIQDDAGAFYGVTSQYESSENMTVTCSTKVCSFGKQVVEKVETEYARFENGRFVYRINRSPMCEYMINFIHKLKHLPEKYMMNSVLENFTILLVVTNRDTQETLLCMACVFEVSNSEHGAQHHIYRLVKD

Row | SMILES | IC50 [1] [nM] | IC50 [2] [nM] | IC50 [3] [nM] | IC50 [4] [nM]
1 | C=CC(=O)NCc1nn(-c2ccc(OC(F)(F)F)cc2)c2nccc(N3CCC(O)CC3)c12 [Compound 91, N-((4-(4-hydroxypiperidin-1-yl)-1-(4-(trifluoromethoxy)phenyl)-1H-pyrazolo[3,4-b]pyridin-3-yl)methyl)acrylamide] | 44 | 41000 | 28.5 | 66
2 | C=CC(=O)NCc1nn(-c2ccc(OC(F)(F)F)cc2)c2nccc(N3CC(N)C3)c12 [Compound 92, N-((4-(3-aminoazetidin-1-yl)-1-(4-(trifluoromethoxy)phenyl)-1H-pyrazolo[3,4-b]pyridin-3-yl)methyl)acrylamide] | 110 | 13000 | 52 | 780
3 | C=CC(=O)N(C)Cc1nn(-c2ccc(OC(F)(F)F)cc2)c2nccc([C@@H](O)CO)c12 [Compound 93, (R)-N-((4-(1,2-dihydroxyethyl)-1-(4-(trifluoromethoxy)phenyl)-1H-pyrazolo[3,4-b]pyridin-3-yl)methyl)-N-methylacrylamide] | 170 | 570 | 22 | 710
4 | Cc1ccnc2c1c(C1CN(C(=O)/C=C/CO)C1)nn2-c1ccc(OC(F)(F)F)cc1 [Compound 96, (E)-4-Hydroxy-1-(3-(4-methyl-1-(4-(trifluoromethoxy)phenyl)-1H-pyrazolo[3,4-b]pyridin-3-yl)azetidin-1-yl)but-2-en-1-one] | 10 | 38 | 3.7 | 30
5 | C[C@H](O)/C=C/C(=O)N1CC(c2nn(-c3ccc(OC(F)(F)F)cc3)c3nccc(CO)c23)C1 [Compound 97, (S,E)-4-hydroxy-1-(3-(4-(hydroxymethyl)-1-(4-(trifluoromethoxy)phenyl)-1H-pyrazolo[3,4-b]pyridin-3-yl)azetidin-1-yl)pent-2-en-1-one] | 78 | 570 | 58 | 520
6 | O=C(/C=C\Cl)NCc1nn(-c2ccc(OC(F)(F)F)cc2)c2nccc(CO)c12 [Compound 99, (Z)-3-Chloro-N-((4-(hydroxymethyl)-1-(4-(trifluoromethoxy)phenyl)-1H-pyrazolo[3,4-b]pyridin-3-yl)methyl)acrylamide] | 3.3 | 87 | 5 | 28
7 | O=C(/C=C/Cl)N1CC(c2nn(-c3ccc(OC(F)(F)F)cc3)c3nccc(CO)c23)C1 [Compound 102, (E)-3-Chloro-1-(3-(4-(hydroxymethyl)-1-(4-(trifluoromethoxy)phenyl)-1H-pyrazolo[3,4-b]pyridin-3-yl)azetidin-1-yl)prop-2-en-1-one] | 10 | 8.8 | 3.3 | 3.5
8 | O=C(/C=C/CO)N1CC(c2nn(-c3ccc(OC(F)(F)F)cc3)c3ccnc(N4CC(O)C4)c23)C1 [Compound 103, (E)-4-hydroxy-1-(3-(4-(3-hydroxyazetidin-1-yl)-1-(4-(trifluoromethoxy)phenyl)-1H-pyrazolo[4,3-c]pyridin-3-yl)azetidin-1-yl)but-2-en-1-one] | 180 | 50000 | 82.5 | 3350
9 | C=CC(=O)NCc1nn(-c2ccc(OC(F)(F)F)cc2)c2nccc(CN(C)C)c12 [Compound 105, N-((4-((dimethylamino)methyl)-1-(4-(trifluoromethoxy)phenyl)-1H-pyrazolo[3,4-b]pyridin-3-yl)methyl)acrylamide] | 1000 | 50000 | 450 | 620
10 | C=CC(=O)NCc1nn(-c2ccc(OC(F)(F)F)cc2)c2nccc(N3CC(O)C3)c12 [Compound 106, N-((4-(3-hydroxyazetidin-1-yl)-1-(4-(trifluoromethoxy)phenyl)-1H-pyrazolo[3,4-b]pyridin-3-yl)methyl)acrylamide] | 15.5 | 935 | 6.75 | 61
11 | C=CC(=O)NCc1nn(-c2ccc(OC(F)(F)F)cc2)c2nccc(N3CC(N(C)C)C3)c12 [Compound 107, N-((4-(3-(dimethylamino)azetidin-1-yl)-1-(4-(trifluoromethoxy)phenyl)-1H-pyrazolo[3,4-b]pyridin-3-yl)methyl)acrylamide] | 280 | 50000 | 36 | 960
12 | C=C(Cl)C(=O)N1CC(c2nn(-c3ccc(OC(F)(F)F)cc3)c3nccc([C@H](O)CO)c23)C1 [Compound 109, (S)-2-Chloro-1-(3-(4-(1,2-dihydroxyethyl)-1-(4-(trifluoromethoxy)phenyl)-1H-pyrazolo[3,4-b]pyridin-3-yl)azetidin-1-yl)prop-2-en-1-one] | 23 | 18 | 5.15 | 7.8
13 | C=C(Cl)C(=O)N1CC(c2nn(-c3ccc(OC(F)(F)F)cc3)c3nccc([C@@H](O)CO)c23)C1 [Compound 110, (R)-2-chloro-1-(3-(4-(1,2-dihydroxyethyl)-1-(4-(trifluoromethoxy)phenyl)-1H-pyrazolo[3,4-b]pyridin-3-yl)azetidin-1-yl)prop-2-en-1-one] | 19 | 17 | 4.3 | 8
14 | C=CC(=O)N1CC(c2nn(-c3ccc(OC(F)(F)F)cc3)c3nccc([C@H](O)CO)c23)C1 [Compound 113, (S)-1-(3-(4-(1,2-Dihydroxyethyl)-1-(4-(trifluoromethoxy)phenyl)-1H-pyrazolo[3,4-b]pyridin-3-yl)azetidin-1-yl)prop-2-en-1-one] | 19 | 20 | 4.5 | 6.5
15 | C=CC(=O)N1CC(c2nn(-c3ccc(OC(F)(F)F)cc3)c3nccc([C@@H](O)CO)c23)C1 [Compound 114, (R)-1-(3-(4-(1,2-Dihydroxyethyl)-1-(4-(trifluoromethoxy)phenyl)-1H-pyrazolo[3,4-b]pyridin-3-yl)azetidin-1-yl)prop-2-en-1-one] | 14 | 16 | 2.9 | 4.6
16 | C=CC(=O)NCc1nn(-c2ccc(OC(F)(F)F)cc2)c2nccc(N3CC(NC(C)=O)C3)c12 [Compound 116, N-((4-(3-acetamidoazetidin-1-yl)-1-(4-(trifluoromethoxy)phenyl)-1H-pyrazolo[3,4-b]pyridin-3-yl)methyl)acrylamide] | 27 | 14000 | 11 | 75
17 | C=CC(=O)NCc1nn(-c2ccc(OC(F)(F)F)cc2)c2nccc(N3CC(OC)C3)c12 [Compound 118, N-((4-(3-methoxyazetidin-1-yl)-1-(4-(trifluoromethoxy)phenyl)-1H-pyrazolo[3,4-b]pyridin-3-yl)methyl)acrylamide] | 16 | 50000 | 4.3 | 97
18 | C=CC(=O)NCc1nn(-c2ccc(OC(F)(F)F)cc2)c2nccc(-c3c[nH]cn3)c12 [Compound 119, N-((4-(1H-Imidazol-4-yl)-1-(4-(trifluoromethoxy)phenyl)-1H-pyrazolo[3,4-b]pyridin-3-yl)methyl)acrylamide] | 160 | 550 | 110 | 250
19 | C/C=C/C(=O)N1CC(c2nn(-c3ccc(OC(F)(F)F)cc3)c3nccc(CO)c23)C1 [Compound 120, (E)-1-(3-(4-(Hydroxymethyl)-1-(4-(trifluoromethoxy)phenyl)-1H-pyrazolo[3,4-b]pyridin-3-yl)azetidin-1-yl)but-2-en-1-one] | 27 | 270 | 55 | 160
20 | C=CC(=O)NCc1nn(-c2ccc(OC(F)(F)F)cc2)c2nccc(N3CC(NC)C3)c12 [Compound 122, N-((4-(3-(methylamino)azetidin-1-yl)-1-(4-(trifluoromethoxy)phenyl)-1H-pyrazolo[3,4-b]pyridin-3-yl)methyl)acrylamide] | 190 | 21000 | 39 | 2000
21 | C=CC(=O)NCc1nn(-c2ccc(OC(F)(F)F)cc2)c2nccc(N3CC(O)(CO)C3)c12 [Compound 124, N-((4-(3-hydroxy-3-(hydroxymethyl)azetidin-1-yl)-1-(4-(trifluoromethoxy)phenyl)-1H-pyrazolo[3,4-b]pyridin-3-yl)methyl)acrylamide] | 41 | 930 | 9.9 | 200
22 | C=C(F)C(=O)N1CC(c2nn(-c3ccc(OC(F)(F)F)cc3)c3nccc(N4CC[C@@H](O)C4=O)c23)C1 [Compound 125, (R)-1-(3-(1-(2-fluoroacryloyl)azetidin-3-yl)-1-(4-(trifluoromethoxy)phenyl)-1H-pyrazolo[3,4-b]pyridin-4-yl)-3-hydroxypyrrolidin-2-one] | 800 | 1700 | 44 | 870
23 | C=CC(=O)NCc1nn(-c2ccc(OC(F)(F)F)cc2)c2nccc(OCCO)c12 [Compound 126, N-((4-(2-Hydroxyethoxy)-1-(4-(trifluoromethoxy)phenyl)-1H-pyrazolo[3,4-b]pyridin-3-yl)methyl)acrylamide] | 22 | 50000 | 4.4 | 120
24 | O=C(/C=C/CO)N1CC(c2nn(-c3ccc(OC(F)(F)F)cc3)c3nccc(Cl)c23)C1 [Compound 127, (E)-1-(3-(4-Chloro-1-(4-(trifluoromethoxy)phenyl)-1H-pyrazolo[3,4-b]pyridin-3-yl)azetidin-1-yl)-4-hydroxybut-2-en-1-one] | 7.9 | 13 | 3.3 | 17
25 | O=C(C#CCO)NCc1nn(-c2ccc(OC(F)(F)F)cc2)c2nccc(CO)c12 [Compound 128, 4-Hydroxy-N-((4-(hydroxymethyl)-1-(4-(trifluoromethoxy)phenyl)-1H-pyrazolo[3,4-b]pyridin-3-yl)methyl)but-2-ynamide] | 6.5 | 72 | 3.6 | 12
